Results: US20080176862A1, “New Compounds 617” (ASTRAZENECA AB, priority 2006, published 2008)
Where a name gives a salt, the structure may show the parent alone.

Molecular target: T1, human β-Secretase (soluble part, AA1-AA460; sBACE-Fc) (Homo sapiens, UniProt P56817)
T1 construct: The soluble part of the human β-Secretase (AA1-AA460) was cloned into the ASP2-Fc10-1-IRES-GFP-neoK mammalian expression vector; made in house
Assay: TR-FRET assay
Format: biochemical
Details: substrate (Europium)CEVNLDAEFK(Qsy7) 100 nM, pH 4.5, 15 min at RT; read-out: IC50 (nM) in TR-FRET assay
Experimental: The enzyme used in the IGEN Cleavage-, Fluorescent-, TR-FRET- and BiaCore assays is described as follows:
The soluble part of the human β-Secretase (AA1-AA460) was cloned into the ASP2-Fc10-1-IRES-GFP-neoK mammalian expression vector. The gene was fused to the Fc domain of IgG1 (affinity tag) and stably cloned into HEK 293 cells. Purified sBACE-Fc is stored in Tris buffer, pH 9.2 and has a purity of 95%.
Enzyme was diluted to 6 μg/mL and the substrate (Europium)[…](Qsy7) to 200 nM in reaction buffer (NaAcetate, chaps, triton x-100, EDTA pH 4.5). Compounds were diluted to the desired concentration in dimethyl sulfoxide (final dimethyl sulfoxide concentration in assay is 5%). […] Enzyme (9 μL) and 1 μL of compound in dimethyl sulfoxide was added to the plate, mixed and pre-incubated for 10 min. Substrate (10 μL) was added and the reaction proceeded in the dark for 15 min at RT. The reaction was stopped with the addition of 7 μL NaAcetate, pH 9. The fluorescence of the product was measured on a Victor II plate reader with an excitation wavelength of 340 nm and an emission wavelength of 615 nm. […] The dimethyl sulfoxide control defined the 100% activity level and 0% activity was defined by exclusion of the enzyme (using reaction buffer instead).

T1 sequence (P56817 22-460): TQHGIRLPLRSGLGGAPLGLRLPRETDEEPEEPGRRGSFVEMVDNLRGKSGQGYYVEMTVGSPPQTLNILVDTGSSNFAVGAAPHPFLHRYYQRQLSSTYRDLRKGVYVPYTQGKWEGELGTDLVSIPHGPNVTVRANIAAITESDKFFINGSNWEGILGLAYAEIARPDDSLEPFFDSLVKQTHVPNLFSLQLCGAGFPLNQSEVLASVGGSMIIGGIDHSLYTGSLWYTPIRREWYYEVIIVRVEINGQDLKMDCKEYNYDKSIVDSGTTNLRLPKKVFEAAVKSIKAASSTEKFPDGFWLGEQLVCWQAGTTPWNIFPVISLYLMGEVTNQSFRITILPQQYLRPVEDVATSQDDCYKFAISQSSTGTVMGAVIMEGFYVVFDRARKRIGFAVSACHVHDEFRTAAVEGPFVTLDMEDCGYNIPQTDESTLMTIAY

Row | Compound | IC50
1 | CN1C(=O)C(c2cccc(OS(=O)(=O)c3cn(C)cn3)c2)(c2ccc(F)c(-c3cncnc3)c2)N=C1N (centres unmarked) [Example 243, 3-[2-Amino-4-(4-fluoro-3-pyrimidin-5-ylphenyl)-1-methyl-5-oxo-4,5-dihydro-1H-imidazol-4-yl]phenyl 1-methyl-1H-imidazole-4-sulfonate] | 26 nM
2 | CN1C(=O)C(c2ccc(F)c(-c3cc(Cl)cc(OS(C)(=O)=O)c3)c2)(C2CCOCC2)N=C1N (centres unmarked) [Example 193, 5′-[2-Amino-1-methyl-5-oxo-4-(tetrahydro-2H-pyran-4-yl)-4,5-dihydro-1H-imidazol-4-yl]-5-chloro-2′-fluorobiphenyl-3-yl methanesulfonate hydrochloride] | 1180 nM
3 | COc1cc(Cl)cc(-c2cc(C3(c4cccc(OS(C)(=O)=O)c4)N=C(N)N(C)C3=O)ccc2F)c1 (centres unmarked) [Example 92, 3-[2-Amino-4-(3′-chloro-6-fluoro-5′-methoxybiphenyl-3-yl)-1-methyl-5-oxo-4,5-dihydro-1H-imidazol-4-yl]phenyl methanesulfonate] | 179 nM
4 | COc1cc(OS(C)(=O)=O)cc(-c2cccc(C3(c4cc(C)nc(C)c4)N=C(N)N(C)C3=O)c2)c1 (centres unmarked) [Example 305, 3′-(2-Amino-4-(2,6-dimethylpyridin-4-yl)-1-methyl-5-oxo-4,5-dihydro-1H-imidazo-4-yl)-5-methoxybiphenyl-3-yl methanesulfonate hydrochloride] | 101 nM
5 | CN1C(=O)C(c2ccc(OS(C)(=O)=O)cc2)(c2ccc(F)c(C3CCCCC3)c2)N=C1N (centres unmarked) [Example 300, 4-[2-Amino-4-(3-cyclohexyl-4-fluorophenyl)-1-methyl-5-oxo-4,5-dihydro-1H-imidazol-4-yl]phenyl methanesulfonate 0.5 acetate] | 410 nM
6 | COc1cc(OS(C)(=O)=O)cc(-c2cccc(C3(c4ccc(OC)c(C)c4)N=C(N)N(C)C3=O)c2)c1 (centres unmarked) [Example 62, 3′-[2-Amino-4-(4-methoxy-3-methylphenyl)-1-methyl-5-oxo-4,5-dihydro-1H-imidazol-4-yl]-5-methoxybiphenyl-3-ylmethanesulfonate 0.25acetate] | 25 nM
7 | CN1C(=O)C(c2cccc(OS(=O)(=O)N(C)C)c2)(c2ccc(F)c(-c3cc(Cl)cc(Cl)c3)c2)N=C1N (centres unmarked) [Example 113, 3-[2-Amino-4-(3′,5′-dichloro-6-fluorobiphenyl-3-yl)-1-methyl-5-oxo-4,5-dihydro-1H-imidazol-4-yl]phenyl dimethylsulfamate] | 121 nM
8 | COc1cccc(-c2cc(C3(c4ccc(OS(C)(=O)=O)cc4)N=C(N)N(C)C3=O)ccn2)c1 (centres unmarked) [Example 39, 4-{2-Amino-4-[2-(3-methoxyphenyl)pyridin-4-yl]-1-methyl-5-oxo-4,5-dihydro-1H-imidazol-4-yl}phenyl methanesulfonate 0.25 acetate] | 365 nM
9 | CCN1C(=O)C(c2ccc(OS(C)(=O)=O)cc2)(c2ccc(F)c(-c3cccc(Cl)c3)c2)N=C1N (centres unmarked) [Example 164, 4-[2-Amino-4-(3′-chloro-6-fluorobiphenyl-3-yl)-1-ethyl-5-oxo-4,5-dihydro-1H-imidazol-4-yl]phenyl methanesulfonate] | 912 nM
10 | COc1ccc(C#N)c(-c2cccc(C3(c4cccc(OS(C)(=O)=O)c4)N=C(N)N(C)C3=O)c2)c1 (centres unmarked) [Example 176, 3-[2-Amino-4-(2′-cyano-5′-methoxybiphenyl-3-yl)-1-methyl-5-oxo-4,5-dihydro-1H-imidazol-4-yl]phenyl methanesulfonate hydrochloride] | 148 nM
11 | COc1ccnc(-c2cc(C3(c4ccc(OS(C)(=O)=O)cc4)N=C(N)N(C)C3=O)ccc2F)n1 (centres unmarked) [Example 6, 4-{2-Amino-4-[4-fluoro-3-(4-methoxypyrimidin-2-yl)phenyl]-1-methyl-5-oxo-4,5-dihydro-1H-imidazol-4-yl}phenyl methanesulfonate 0.25 acetate] | 834 nM
12 | COc1ccc(C2(c3cccc(-c4cc(OC)cc(OS(C)(=O)=O)c4)c3)N=C(N)N(C)C2=O)cc1 (centres unmarked) [Example 57, 3′-[2-Amino-4-(4-methoxyphenyl)-1-methyl-5-oxo-4,5-dihydro-1H-imidazol-4-yl]-5-methoxybiphenyl-3-yl methanesulfonate] | 34 nM
13 | COc1cc(OS(C)(=O)=O)cc(-c2cccc(C3(c4ccc(OC(F)(F)F)cc4)N=C(N)N(C)C3=O)c2)c1 (centres unmarked) [Example 58, 3′-{2-Amino-1-methyl-5-oxo-4-[4-(trifluoromethoxy)phenyl]-4,5-dihydro-1H-imidazol-4-yl}-5-methoxybiphenyl-3-ylmethanesulfonate] | 81 nM
14 | CCc1cc(C2(c3ccc(F)c(-c4cc(Cl)cc(OS(C)(=O)=O)c4)c3)N=C(N)N(C)C2=O)cc(CC)n1 (centres unmarked) [Example 210, 5′-[2-Amino-4-(2,6-diethylpyridin-4-yl)-1-methyl-5-oxo-4,5-dihydro-1H-imidazol-4-yl]-5-chloro-2′-fluorobiphenyl-3-yl methanesulfonate hydrochloride] | 137 nM
15 | CN1C(=O)C(c2cccc(OS(=O)(=O)c3ccccc3)c2)(c2ccc(F)c(-c3cncnc3)c2)N=C1N (centres unmarked) [Example 133, 3-[2-Amino-4-(4-fluoro-3-pyrimidin-5-ylphenyl)-1-methyl-5-oxo-4,5-dihydro-1H-imidazol-4-yl]phenyl benzenesulfonate hydrochloride] | 33 nM
16 | COc1cc(OS(C)(=O)=O)cc(-c2cccc(C3(c4ccc(OC(F)F)cc4)N=C(N)N(C)C3=O)c2)c1 (centres unmarked) [Example 63, 3′-{2-Amino-4-[4-(difluoromethoxy)phenyl]-1-methyl-5-oxo-4,5-dihydro-1H-imidazol-4-yl}-5-methoxybiphenyl-3-yl methanesulfonate 0.25acetate] | 18 nM
17 | CCCN1C(=O)C(c2ccc(OS(C)(=O)=O)cc2)(c2ccc(F)c(-c3cncnc3)c2)N=C1N (centres unmarked) [Example 165, 4-[2-Amino-4-(4-fluoro-3-pyrimidin-5-ylphenyl)-1-propyl-5-oxo-4,5-dihydro-1H-imidazol-4-yl]phenyl methanesulfonate 0.5 acetate] | 589 nM
18 | CN1C(=O)C(c2cccc(OS(=O)(=O)c3c(Cl)nc4sccn34)c2)(c2ccc(F)c(Br)c2)N=C1N (centres unmarked) [Example 233, 3-[2-Amino-4-(3-bromo-4-fluorophenyl)-1-methyl-5-oxo-4,5-dihydro-1H-imidazol-4-yl]phenyl 6-chloroimidazo[2,1-b][1,3]thiazole-5-sulfonate] | 321 nM
19 | CN1C(=O)C(c2cccc(OS(=O)(=O)c3c(F)cccc3F)c2)(c2ccc(F)c(-c3cncnc3)c2)N=C1N (centres unmarked) [Example 236, 3-[2-Amino-4-(4-fluoro-3-pyrimidin-5-ylphenyl)-1-methyl-5-oxo-4,5-dihydro-1H-imidazol-4-yl]phenyl 2,6-difluorobenzenesulfonate] | 65 nM
20 | CCN1C(=O)C(c2ccc(OS(C)(=O)=O)cc2)(c2ccc(F)c(-c3cc(Cl)cc(Cl)c3)c2)N=C1N (centres unmarked) [Example 161, 4-[2-Amino-4-(3′,5′-dichloro-6-fluorobiphenyl-3-yl)-1-ethyl-5-oxo-4,5-dihydro-1H-imidazol-4-yl]phenyl methanesulfonate] | 1680 nM
21 | CCCS(=O)(=O)Oc1cccc(C2(c3ccc(F)c(-c4cncnc4)c3)N=C(N)N(C)C2=O)c1 (centres unmarked) [Example 102, 3-[2-Amino-4-(4-fluoro-3-pyrimidin-5-ylphenyl)-1-methyl-5-oxo-4,5-dihydro-1H-imidazol-4-yl]phenyl propane-1-sulfonate] | 321 nM
22 | CCc1ccc(C2(c3ccc(F)c(-c4cncnc4)c3)N=C(N)N(C)C2=O)cc1OS(C)(=O)=O (centres unmarked) [Example 253, 5-[2-Amino-4-(4-fluoro-3-pyrimidin-5-ylphenyl)-1-methyl-5-oxo-4,5-dihydro-1H-imidazol-4-yl]-2-ethylphenyl methanesulfonate 0.5 acetate] | 96 nM
23 | CN1C(=O)C(c2ccc(OS(=O)(=O)c3ccccc3)cc2)(c2ccc(F)c(Br)c2)N=C1N (centres unmarked) [Example 184, 4-[2-Amino-4-(3-bromo-4-fluorophenyl)-1-methyl-5-oxo-4,5-dihydro-1H-imidazol-4-yl]phenyl benzenesulfonate] | 156 nM
24 | CN1C(=O)C(c2cccc(OS(C)(=O)=O)c2)(c2ccc(F)c(C3=CCCC3)c2)N=C1N (centres unmarked) [Example 194, 3-[2-Amino-4-(3-cyclopent-1-en-1-yl-4-fluorophenyl)-1-methyl-5-oxo-4,5-dihydro-1H-imidazol-4-yl]phenyl methanesulfonate hydrochloride] | 284 nM
25 | COc1ccc(C2(c3ccc(F)c(-c4cncnc4)c3)N=C(N)N(C)C2=O)cc1OS(=O)(=O)C(F)(F)F (centres unmarked) [Example 14, 5-[2-Amino-4-(4-fluoro-3-pyrimidin-5-ylphenyl)-1-methyl-5-oxo-4,5-dihydro-[H-imidazol-4-yl]-2-methoxyphenyl trifluoromethanesulfonate 0.5 acetate] | 59 nM
26 | COc1ccc(F)c(-c2cncc(C3(c4ccc(OS(C)(=O)=O)cc4)N=C(N)N(C)C3=O)c2)c1 (centres unmarked) [Example 21, 4-{2-Amino-4-[5-(2-fluoro-5-methoxyphenyl)pyridin-3-yl]-1-methyl-5-oxo-4,5-dihydro-1H-imidazol-4-yl}phenyl methanesulfonate 0.5 acetate] | 1910 nM
